# Results from publication PMC4265264 (Hepatology (Baltimore, Md.), 2014).
# What was measured:
# HBV [1] = experiment: HBV infection; format: cell-based, hepatitis B virus; conditions: HepaRG
# HBV [2] = experiment: HBV infection of primary human hepatocytes; format: cell-based, hepatitis B virus; conditions: CsA 4 μM, HBs in medium or HBV DNA in cells at 12 days
# HBV [3] = experiment: HBV attachment and internalization assay in HepaRG cells; format: cell-based, hepatitis B virus; conditions: CsA 4 μM
# HBV particles = experiment: Pretreatment of HBV particles with compounds, then infection of HepaRG cells; format: cell-based, hepatitis B virus; conditions: 30 min 37°C, compound removed by ultrafiltration, HBs at 12 days
# HCVpp = experiment: HCV pseudoparticle; format: cell-based, hepatitis C virus; conditions: Huh-7.5.1 cells pretreated 1 h, HCVpp 4 h, read at 72 h
# [4] = tested on: calcineurin/NF-AT pathway; experiment: Calcineurin/NF-AT reporter assay in Jurkat cells; format: cell-based, human; conditions: pNF-AT-luc, PMA and ionomycin
# HBV [5] = experiment: HBV infection of HepG2 cells overexpressing NTCP; format: cell-based, hepatitis B virus; conditions: pretreated 2 h, HBV 16 h
# HCV = conditions: read-out: anti-HCV replication activity (IC50); cited from earlier work
# HBV [6] = experiment: HBV replication in HepAD38 cells, southern blot of core particle HBV DNA; format: cell-based, hepatitis B virus; conditions: lamivudine 1 μM, 6 days
compound,measurement,setting,value
cyclosporin A [CsA],"HBc protein, HBV DNA and cccDNA in the cells and HBe in the medium","HBV [1]; CsA 4 μM, 12 days postinfection",significantly decreased
same,"HBs and HBe production, compound added during HBV infection (time of addition)","HBV [1]; CsA 4 μM, Fig. 2E-b",decreased HBs and HBe production
same,"HBs and HBe production, compound added after HBV infection (time of addition)","HBV [1]; CsA 4 μM, Fig. 2E-c",did not have an anti‐HBV effect
same,Dose-response of HBs (and HBe) secretion,"HBV [1]; protocol Fig. 1A, CsA 0.5-4 μM, analogs 0.25-4 μM",decreased HBs and HBe secreted from the infected cells
same,Infection of different HBV genotypes into PHHs,HBV [2],"reduced the infection of HBV genotype A, C, or D"
same,Attached HBV DNA (attachment assay),"HBV [3]; 4°C 3 h, real-time PCR","slightly reduced the amount of attached HBV DNA, although the effect was not statistically significant"
same,Internalized HBV DNA (internalization assay),"HBV [3]; 37°C 16 h after attachment, trypsinized",significant reduction of HBV DNA
same,HBV infectivity after preincubation of HBV with compound,HBV particles,did not affect HBV infectivity
same,HCV entry (HCVpp luciferase activity),HCVpp,did not affect the entry of HCV
same,Calcineurin (CN)/NF-AT pathway inhibition,[4],can inhibit CN
same,HBs and HBe secretion of HBV-infected HepG2-NTCP cells,HBV [5],reduced HBs and HBe secretion
PSC833,Calcineurin (CN)/NF-AT pathway inhibition,[4],inactive for CN inhibition
Alisporivir,IC50,HCV,220 nM
C=CC[C@@H]1/C=C(\C)C[C@H](C)C[C@H](OC)[C@H]2O[C@@](O)(C(=O)C(=O)N3CCCC[C@H]3C(=O)O[C@H](/C(C)=C/[C@@H]3CC[C@@H](O)[C@H](OC)C3)[C@H](C)[C@@H](O)CC1=O)[C@H](C)C[C@@H]2OC [FK506],Calcineurin (CN)/NF-AT pathway inhibition,[4],can inhibit CN
Nc1ccn([C@@H]2CS[C@H](CO)O2)c(=O)n1 [lamivudine],HBV DNA in HepAD38 cells,HBV [6],drastically decreased HBV DNAs
CO/C1=C\C(C)=C\[C@@H](C)[C@@H](O)[C@@H](C)C/C(C)=C/C=C/[C@H](OC)[C@@H]([C@@H](C)[C@@H](O)[C@H](C)[C@@]2(O)C[C@@H](O)[C@H](C)[C@@H](C(C)C)O2)OC1=O [bafilomycin A1],HCV entry (HCVpp luciferase activity),HCVpp,inhibition of HCV entry
heparin,HBV infectivity after preincubation of HBV with compound,HBV particles,antagonizing effect
same,HCV entry (HCVpp luciferase activity),HCVpp,inhibition of HCV entry
